Source: ChEMBL document CHEMBL1759893, “1,4-Diazepane compounds as potent and selective CB2 agonists: optimization of metabolic stability” (Bioorg Med Chem Lett, 2011)
≈ marks a conversion by molar mass, not a printed value.

Assays:
[1] = Aqueous solubility of the compound at pH 7.4; format: physicochemical; settings: buffer
Rattus norvegicus = species on record: Rattus norvegicus; experiment: Hepatic blood flow in rat; format: ADME, organism-based, Liver
[2] = Cmax in Wistar rat at 10 umol/kg, po; format: ADME, organism-based, Wister; parameters: dose 10 umol/kg, route oral; settings: in vivo
[3] = AUC (0 to infinity) in Wistar rat at 10 umol/kg, po; format: ADME, organism-based, Wister; parameters: dose 10 umol/kg, route oral, time infinity; settings: plasma
Homo sapiens = species on record: Homo sapiens; experiment: Hepatic blood flow in human; format: ADME, organism-based, Liver
[4] = Oral bioavailability in Wistar rat at 10 umol/kg; format: ADME, organism-based, Wister; settings: in vivo
[5] = Volume of distribution at steady state in Wistar rat at 1 umol/kg, iv; format: ADME, organism-based, Wister; settings: in vivo, read-out: Vdss

## CCCCc1ccc(NC(=O)N2CCCN(C(=O)CCC3CCCC3)CC2)cc1
[1]
  solubility: 3 µg/mL (≈ 7.51 µM)

## CC(C)(C)c1cc(NC(=O)N2CCCN(C(=O)C3CCOCC3)CC2)no1
[1]
  solubility: > 37 µg/mL
Rattus norvegicus
  QH: 35%
[2]
  Cmax: 1760 ng/mL
[3]
  AUC(0-inf): 1.38 µM·h
Homo sapiens
  QH: < 24%
[4]
  bioavailability: 28%
[5]
  Vd: 0.87 L/kg

## CC(C)(C)c1cc(NC(=O)N2CCCN(C(=O)C3CCOCC3)CC2)on1
[1]
  solubility: > 37 µg/mL
Rattus norvegicus
  QH: < 23%
Homo sapiens
  QH: < 24%

## CC(C)(C)c1cc(NC(=O)N2CCCN(C(=O)N3CCS(=O)(=O)CC3)CC2)no1
[1]
  solubility: 18 µg/mL (≈ 42.1 µM)
Rattus norvegicus
  QH: 42%
Homo sapiens
  QH: < 24%

## CC(C)(C)c1cc(NC(=O)N2CCCN(C(=O)CN3CCS(=O)(=O)CC3)CC2)no1
[1]
  solubility: > 96 µg/mL
Rattus norvegicus
  QH: 27%
Homo sapiens
  QH: 50%
